The results in this text go back to patent publication US20260070922A1, “PYRAZOLE AND IMIDAZOLE DERIVATIVES AS DUAL OREXIN AND KAPPA-OPIOID RECEPTORS MODULATORS COMPOSITION, METHODS FOR TREATING NEUROLOGICAL AND PSYCHIATRIC DISORDERS” (HAGER BIOSCIENCES, LLC, priority 2022, published 2026).

In assay [1] the target is T1, human k-opioid receptor (kOR) (Homo sapiens, UniProt P41145).
T1 construct: expressed in transfected cells; host or cells: RBL cells (membrane homogenates)
The assay is described as follows: Human k-opioid (KOP) receptor (agonist radioligand [3H]U-69593) binding assay, transfected RBL cell membranes. The conditions noted are these: read-out: KOR % Inh. @ 1 uM. The method, then:
Human k-Opioid (KOP) Receptor (Agonist Radioligand) Binding Assay
Purpose: Evaluation of the affinity of compounds for the human k-opioid receptor in transfected RBL cells determined in a radioligand binding assay.
Experimental protocol: Cell membrane homogenates (about 80 μg protein) are incubated for 60 min at 22° C. with 0.5 nM [3H]U-69593 in the absence or presence of the test compound in a buffer containing 50 mM Tris-HCl (pH 7.4), 10 mM MgCl2 and 1 mM EDTA. Nonspecific binding is determined in the presence of 10 μM naloxone. Following incubation, the samples are filtered rapidly under vacuum through glass fiber filters ([…], Packard) presoaked with 0.3% PEI and rinsed several times with ice-cold 50 mM Tris-HCl using a 96-sample cell harvester (Unifilter, Packard). The filters are dried then counted for radioactivity in a scintillation counter (Topcount, Packard) using a scintillation cocktail (Microscint 0, Packard). The results are expressed as a percent inhibition of the control radioligand specific binding. The standard reference compound is U-50488, which is tested in each experiment at several concentrations to obtain a competition curve from which its IC50 is calculated.

For assay [2], the target named is T2, Orexin type 1 (OX1R) receptor (Homo sapiens, UniProt O43613).
T2 construct: expressed in transfected cells; host or cells: CHO cells (G418 selection)
T2 sequence (O43613 1-425): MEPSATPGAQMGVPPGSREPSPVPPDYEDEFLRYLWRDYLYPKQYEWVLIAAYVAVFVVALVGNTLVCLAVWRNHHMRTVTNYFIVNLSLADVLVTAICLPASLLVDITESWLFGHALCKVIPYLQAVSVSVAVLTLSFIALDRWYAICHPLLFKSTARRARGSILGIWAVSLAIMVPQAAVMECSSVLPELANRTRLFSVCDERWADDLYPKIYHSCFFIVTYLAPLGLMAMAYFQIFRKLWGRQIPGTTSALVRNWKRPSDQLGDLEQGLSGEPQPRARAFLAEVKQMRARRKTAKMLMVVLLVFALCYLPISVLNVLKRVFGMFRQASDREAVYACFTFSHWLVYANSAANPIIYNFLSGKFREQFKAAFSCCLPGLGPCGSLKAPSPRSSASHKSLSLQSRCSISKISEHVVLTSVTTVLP
The assay is described as follows: In vitro orexin antagonism assay: intracellular calcium measurement (FLIPR), orexin-A 3 nM as agonist. Type of assay: cell-based. The conditions noted are these: for IC50: first value of IC50/Kb cell; for inhibition at 1 µM: read-out: OX1R, % Inh. @ 1 uM; for Kb: second value of IC50/Kb cell. In short, it runs like this: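 CHO cells expressing the human orexin receptor were loaded with 3 μM fluo-4 AM plus 5 mM probenecid, then exposed to antagonist for 120 min before 3 nM orexin-A (final) was added on a FLIPR.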
In general terms: A change in cytosolic calcium serves as a functional read-out for many receptors and channels.

In assay [3] the target is T3, human orexin-2 receptor (OX2R) (Homo sapiens, UniProt O43614).
T3 construct: expressed in transfected cells; host or cells: CHO cells (G418 selection)
T3 sequence (O43614 1-444): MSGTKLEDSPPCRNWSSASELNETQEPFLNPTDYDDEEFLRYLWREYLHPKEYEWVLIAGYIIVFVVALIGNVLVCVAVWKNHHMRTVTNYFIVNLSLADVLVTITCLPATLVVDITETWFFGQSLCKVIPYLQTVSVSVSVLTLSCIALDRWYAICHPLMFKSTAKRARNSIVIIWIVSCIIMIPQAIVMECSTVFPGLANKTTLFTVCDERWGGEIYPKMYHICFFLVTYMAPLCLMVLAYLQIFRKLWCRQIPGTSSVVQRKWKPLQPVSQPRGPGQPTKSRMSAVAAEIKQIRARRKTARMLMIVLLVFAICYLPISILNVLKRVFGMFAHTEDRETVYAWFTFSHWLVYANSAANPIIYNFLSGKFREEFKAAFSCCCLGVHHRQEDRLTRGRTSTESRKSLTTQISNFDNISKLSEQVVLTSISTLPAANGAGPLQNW
The description is as above. Type of assay: cell-based. The conditions noted are these: for inhibition at 1 µM: read-out: OX2R, % Inh. @ 1 uM; for IC50: first value of IC50/Kb cell; for Kb: second value of IC50/Kb cell. The essentials:
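Fluorescence peak on 3 nM orexin-A challenge, read by FLIPR and compared with vehicle, yields IC50 (geometric mean when repeated; may be normalized to an on-plate reference). Antagonists were added 120 min beforehand to fluo-4-loaded recombinant CHO cells expressing human OX1R or OX2R.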

Structures are written as SMILES.

T1 sequence (P41145 whole entry): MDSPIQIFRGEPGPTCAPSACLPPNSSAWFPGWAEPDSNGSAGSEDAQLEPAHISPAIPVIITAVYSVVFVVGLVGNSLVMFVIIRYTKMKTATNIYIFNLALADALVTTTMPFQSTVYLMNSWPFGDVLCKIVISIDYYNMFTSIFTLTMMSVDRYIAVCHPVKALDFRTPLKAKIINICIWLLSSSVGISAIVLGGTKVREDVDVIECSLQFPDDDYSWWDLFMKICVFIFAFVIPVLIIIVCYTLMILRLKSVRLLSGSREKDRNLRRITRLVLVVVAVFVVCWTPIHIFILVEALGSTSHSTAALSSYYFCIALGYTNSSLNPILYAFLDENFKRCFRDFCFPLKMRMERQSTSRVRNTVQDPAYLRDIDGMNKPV

As to `O=C(c1nn2c(c1-c1ccccc1)COCC2)N1CCC[C@H]1Cn1ccc(-c2ccccn2)n1` [Example 134], the figures for the inhibition at 1 µM in assay [1], in assay [2] and in assay [3] were 0%, 100% and 44%, respectively. Besides, the IC50 in assay [2] is 12 nM. For the same compound, the Kb in assay [2] amounted to 3 nM.

Regarding `O=C(c1nn2c(c1-c1ccccc1)OCCC2)N1CCC[C@H]1Cn1ccc(-c2ccccn2)n1` [Example 135], the inhibition at 1 µM in assay [1] is 22%. Further, in assay [2], the IC50 was 4 nM, the inhibition at 1 µM amounted to 100% and the Kb came out at 1 nM. For the same compound, in assay [3], the IC50 turned out to be 660 nM, the inhibition at 1 µM was determined as 71% and the Kb came out at 110 nM.

With `O=C(c1nn2cccnc2c1-c1ccccc1)N1CCC[C@H]1Cn1ccc(-c2ccccc2)n1` [Example 136], the inhibition at 1 µM was 26% in assay [1], 99% in assay [2] and 74% in assay [3]. The figures for the half-inhibitory concentration (IC50) in assay [2] and in assay [3] were 9 nM and 3 nM, respectively. Also, the Kb in assay [2] was 1 nM; in assay [3], 0.5 nM.

As to `O=C(c1nn2cccnc2c1-c1ccccc1)N1CCC[C@H]1Cn1ccc(-c2ccccn2)n1` [Example 137], in assay [1], the inhibition at 1 µM amounted to 9%. Besides, in assay [2], the half-maximal inhibitory concentration (IC50) is 5 nM, the inhibition at 1 µM turned out to be 99% and the antagonist dissociation constant (Kb) turned out to be 1 nM. Moreover, in assay [3], the IC50 amounted to 490 nM, the inhibition at 1 µM amounted to 52% and the Kb was determined as 85 nM.

For `O=C(c1c(-c2ncccn2)nn2ccccc12)N1CCC[C@H]1Cn1ccc(-c2ccccn2)n1` [Example 138], in assay [1], the inhibition at 1 µM was 0%. Also, in assay [2], the IC50 turned out to be 9 nM, the inhibition at 1 µM amounted to 100% and the Kb came to 2 nM. Further, in assay [3], the half-maximal inhibitory concentration (IC50) was 490 nM, the inhibition at 1 µM was found to be 62% and the antagonist equilibrium constant (Kb) stood at 84 nM.

Take `O=C(c1c(-c2ccccn2)nn2ccccc12)N1CCC[C@H]1Cn1ccc(-c2ccccn2)n1` [Example 139]: the inhibition at 1 µM in assay [1] is 0%. Moreover, in assay [2], the IC50 worked out at 8 nM, the inhibition at 1 µM stood at 100% and the Kb is 2 nM. Also, in assay [3], the half-maximal inhibitory concentration (IC50) came out at 63 nM, the inhibition at 1 µM amounted to 82% and the Kb amounted to 11 nM.

In the case of `O=C(c1c(-c2ccccc2)nn2cccnc12)N1CCC[C@H]1Cn1ccc(-c2ccccn2)n1` [Example 140], in assay [1], the inhibition at 1 µM is 14%. In addition, in assay [2], the IC50 amounted to 4 nM, the inhibition at 1 µM was determined as 100% and the Kb was determined as 1 nM. Moreover, in assay [3], the IC50 is 190 nM, the inhibition at 1 µM came out at 59% and the antagonist equilibrium constant (Kb) worked out at 32 nM.

On to `O=C(c1nn2c(c1-c1ccccc1)COCC2)N1CCC[C@H]1COc1ccc(C(F)(F)F)cn1` [Example 141], for which, in assay [1], the inhibition at 1 µM was 40%. Moreover, in assay [2], the IC50 worked out at 5 nM, the inhibition at 1 µM stood at 100% and the antagonist dissociation constant (Kb) stood at 1 nM. The inhibition at 1 µM in assay [3] stood at 33%.

On to `C[C@@]1(COc2ccc(C(F)(F)F)cn2)CCCN1C(=O)c1nn2ccccc2c1-c1ccccc1` [Example 143], for which the inhibition at 1 µM in assay [1] amounted to 3%. In addition, in assay [2], the IC50 is 210 nM, the inhibition at 1 µM was determined as 98% and the Kb stood at 45 nM. Moreover, in assay [3], the inhibition at 1 µM stood at 31%.

Turning to `C[C@@]1(COc2ccc(C(F)(F)F)cn2)CCCN1C(=O)c1nc2ccccn2c1-c1ccccc1` [Example 144], the inhibition at 1 µM in assay [1] stood at 4%. In assay [2], the IC50 was 250 nM, the inhibition at 1 µM is 98% and the antagonist equilibrium constant (Kb) came to 53 nM. Also, in assay [3], the inhibition at 1 µM is 13%.

For `C[C@@]1(COc2ccc(C(F)(F)F)cn2)CCCN1C(=O)c1nn2c(c1-c1ccccc1)COCC2` [Example 145], the inhibition at 1 µM in assay [1] was found to be 12%. In addition, in assay [2], the IC50 came to 270 nM, the inhibition at 1 µM was found to be 96% and the antagonist equilibrium constant (Kb) came to 56 nM. In assay [3], the inhibition at 1 µM came to 5%.

Consider `C[C@@]1(COc2ccc(C(F)(F)F)cn2)CCCN1C(=O)c1nn2cccnc2c1-c1ccccc1` [Example 146], for which the inhibition at 1 µM in assay [1] turned out to be 0%. For the same compound, in assay [2], the IC50 turned out to be 350 nM, the inhibition at 1 µM turned out to be 99% and the Kb amounted to 74 nM. In addition, the inhibition at 1 µM in assay [3] turned out to be 27%.

For `C[C@@]1(COc2ccc(C(F)(F)F)cn2)CCCN1C(=O)c1c(-c2ccccn2)nn2ccccc12` [Example 147], the inhibition at 1 µM came out at 2% in assay [1], 100% in assay [2] and 25% in assay [3]. For the same compound, in assay [2], the IC50 turned out to be 43 nM. The Kb in assay [2] was 9 nM.

With `C[C@@]1(COc2ccc(C(F)(F)F)cn2)CCCN1C(=O)c1c(-c2ncccn2)nn2ccccc12` [Example 148], the inhibition at 1 µM was found to be 8% in assay [1], 98% in assay [2] and 19% in assay [3]. Further, the IC50 in assay [2] amounted to 120 nM. For the same compound, the antagonist dissociation constant (Kb) in assay [2] was determined as 26 nM.

In the case of `C[C@@]1(Cn2ccc(-c3ccccn3)n2)CCCN1C(=O)c1nc2ccccn2c1-c1ccccc1` [Example 149], the inhibition at 1 µM in assay [1] is 28%; in assay [2], 89%; in assay [3], 13%. Besides, the IC50 in assay [2] was 570 nM. Also, the Kb in assay [2] is 120 nM.

As for `C[C@@]1(Cn2ccc(-c3ccccn3)n2)CCCN1C(=O)c1nn2ccccc2c1-c1ccccc1` [Example 150], the inhibition at 1 µM in assay [1] stood at 16%. Moreover, in assay [2], the IC50 was 340 nM, the inhibition at 1 µM was determined as 97% and the antagonist dissociation constant (Kb) stood at 72 nM. In addition, in assay [3], the inhibition at 1 µM is 11%.

For `C[C@@]1(COc2ccc(C(F)(F)F)cn2)CCCN1C(=O)c1c(-c2ccccc2)nn2ccccc12` [Example 151], the inhibition at 1 µM is 7% in assay [1], 99% in assay [2] and 34% in assay [3]. Moreover, the IC50 in assay [2] worked out at 90 nM. In assay [2], the antagonist equilibrium constant (Kb) amounted to 19 nM.

With `O=C(c1nn2c(c1-c1ccccc1)COCC2)N1[C@@H]2CC[C@@H](C2)[C@H]1COc1ccc(C(F)(F)F)cn1` [Example 152], in assay [1], the inhibition at 1 µM was 3%. Moreover, in assay [2], the IC50 worked out at 2400 nM, the inhibition at 1 µM was found to be 58% and the Kb stood at 510 nM. Besides, in assay [3], the inhibition at 1 µM was 16%.

`O=C(c1c(-c2ncccn2)nn2ccccc12)N1[C@@H]2CC[C@@H](C2)[C@H]1COc1ccc(C(F)(F)F)cn1` [Example 153]: in assay [1], the inhibition at 1 µM was determined as 0%. Also, in assay [2], the IC50 came out at 190 nM, the inhibition at 1 µM was found to be 90% and the antagonist dissociation constant (Kb) is 40 nM. Further, in assay [3], the inhibition at 1 µM worked out at 35%.

With `C[C@@]1(Cn2ccc(-c3ccccn3)n2)CCCN1C(=O)c1nn2c(c1-c1ccccc1)COCC2` [Example 154], the inhibition at 1 µM was determined as 23% in assay [1], 83% in assay [2] and 5% in assay [3]. Besides, in assay [2], the concentration for half-maximal inhibition (IC50) came out at 520 nM. Besides, the Kb in assay [2] was determined as 110 nM.

As to `O=C(c1c(-c2ncccn2)nn2ccccc12)N1CCC[C@H]1Cc1nc(-c2ccccn2)no1` [Example 155], the inhibition at 1 µM in assay [1] was determined as 12%. Moreover, in assay [2], the 50% inhibitory concentration (IC50) is 410 nM, the inhibition at 1 µM amounted to 69% and the Kb turned out to be 87 nM. Moreover, in assay [3], the inhibition at 1 µM came to 25%.

As a reminder, the IC50 is the concentration that gives 50% inhibition. As a reminder, the Kb is the equilibrium dissociation constant of an antagonist, usually derived from a functional assay.
